CN(C)/C=C/C(=O)c1cccnc1
solubility (mole fraction)
Settings	in 1,4-dioxane	in DMF	in THF	in acetone	in cyclohexane	in ethyl acetate	in methanol	in n-propanol
278.15 K	–	0.0897	0.021	0.00872	–	0.0131	0.0255	0.0185
283.15 K	–	0.112	0.0216	0.00917	0.00098	0.014	0.0278	0.0207
288.15 K	0.0331	0.142	0.0225	0.00987	0.00114	0.0152	0.0304	0.0233
293.15 K	0.0357	0.175	0.0239	0.0108	0.00147	0.0163	0.034	0.0261
298.15 K	0.0388	0.209	0.0257	0.0117	0.00183	0.018	0.0379	0.0298
303.15 K	0.0427	0.249	0.0279	0.0127	0.00228	0.02	0.0427	0.0331
308.15 K	0.048	0.293	0.0304	0.0138	0.00284	0.0228	0.0476	0.0371
313.15 K	0.054	0.348	0.033	0.0149	0.0034	0.0259	0.0533	0.0408
318.15 K	0.061	0.408	0.0358	0.0164	0.00408	0.0295	0.0588	0.0465
323.15 K	0.0692	0.482	0.0391	0.0178	0.00493	0.0338	0.0648	0.0529
328.15 K	0.0779	0.588	0.0428	0.0197	0.0061	0.0382	0.0715	0.0604

Reference: BigSolDB 2.1
